# Where “and” joins values, the source holds several entries; their conditions need not be identical. Identical values can stand only once. Like-named read-outs stand apart in the source and are kept apart here.
# Assays:
# [1] = tested on: C. albicans ATCC MYA-1003(R) (strain A); assay type: cell-based, Candida albicans; details: strain A = C. albicans ATCC MYA-1003(R); MIC-0; 48 h at 35° C.
# [2] = tested on: C. albicans ATCC 10231(R) (strain B); assay type: cell-based, Candida albicans
# [3] = tested on: C. albicans ATCC MYA-1237(R) (strain C); assay type: cell-based, Candida albicans; details: strain C = C. albicans ATCC MYA-1237(R); MIC-0; 48 h; listed as printed beside letter D
# [4] = tested on: C. albicans ATCC MYA-2310(S) (strain D); test: MIC determination (broth microdilution); assay type: cell-based, Candida albicans; details: strain D = C. albicans ATCC MYA-2310(S); MIC-0; 48 h; listed as printed beside letter E
# [5] = tested on: C. albicans ATCC 64124(R) (strain F); assay type: cell-based, Candida albicans; details: strain F = C. albicans ATCC 64124(R); MIC-0; 48 h; listed as printed beside letter G
# [6] = tested on: C. auris AR Bank # 0390 (strain L); test: MIC determination (broth microdilution); assay type: cell-based, Candida auris; details: strain L = C. auris AR Bank # 0390; MIC-0; 48 h (CAS read at 24 h); Table 1 row printed without letter, below L; also in Table 2
# [7] = tested on: C. neoformans CN2 (strain O); test: MIC determination (broth microdilution); assay type: cell-based, Cryptococcus neoformans; details: MIC-0, 72 h at 35° C.
# [8] = tested on: C. neoformans CN3 (strain P); test: MIC determination (broth microdilution); assay type: cell-based, Cryptococcus neoformans; details: MIC-0, 72 h at 35° C.
# [9] = tested on: A. flavus ATCC MYA-3631 (strain S); test: MIC determination (broth microdilution); assay type: cell-based, Aspergillus flavus; details: strain S = A. flavus ATCC MYA-3631; MIC-0; 72 h at 35° C.
# [10] = tested on: C. auris AR Bank # 0381 (strain I); test: MIC determination (broth microdilution); assay type: cell-based, Candida auris; details: strain I = C. auris AR Bank # 0381; MIC-0; 48 h (CAS read at 24 h)
# [11] = tested on: C. auris AR Bank # 0382 (strain II); test: MIC determination (broth microdilution); assay type: cell-based, Candida auris; details: strain II = C. auris AR Bank # 0382; MIC-0; 48 h (CAS read at 24 h)
# [12] = tested on: C. auris AR Bank # 0388 (strain VII); test: MIC determination (broth microdilution); assay type: cell-based, Candida auris; details: strain VII = C. auris AR Bank # 0388; MIC-0; 48 h (CAS read at 24 h)
# [13] = tested on: C. auris AR Bank # 0389 (strain VIII); test: MIC determination (broth microdilution); assay type: cell-based, Candida auris; details: strain VIII = C. auris AR Bank # 0389; MIC-0; 48 h (CAS read at 24 h)
# [14] = tested on: C. albicans ATCC 10231 (strain B) biofilm; test: Prevention of biofilm formation (XTT); assay type: cell-based, Candida albicans; details: treated at 0 h, 90% decrease in metabolic activity (XTT)
# [15] = tested on: C. auris AR Bank # 0384 (strain K) biofilm; assay type: cell-based, Candida auris; details: treated at 0 h, XTT
# [16] = tested on: C. albicans ATCC 10231 (strain B) pre-formed biofilm; test: Disruption of pre-formed biofilm (XTT); assay type: cell-based, Candida albicans; details: for Pre-formed biofilm SMIC90: biofilm treated at 24 h, XTT
# [17] = tested on: C. auris AR Bank # 0390 (strain L) pre-formed biofilm; assay type: cell-based, Candida auris; details: biofilm treated at 24 h, XTT
# [18] = tested on: fungal strains (Candida spp., Cryptococcus spp., Aspergillus spp., Fusarium spp.); test: MIC determination, summary statements over the strain panel; assay type: cell-based
# [19] = tested on: A. nidulans ATCC 38163 (strain Q); test: MIC determination (broth microdilution); assay type: cell-based, Aspergillus nidulans; details: strain Q = A. nidulans ATCC 38163; MIC-0; 72 h at 35° C.
# [20] = tested on: four mammalian cell lines (A549, BEAS-2B, HEK-293, J774A.1); test: Mammalian cytotoxicity assays, summary over cell lines; assay type: cell-based; details: for cell survival: at 15.6 μg/mL, excluding auranofin with J774A.1
# Description: For cytotoxicity assays, the human embryonic kidney cell line (HEK-293) was purchased from the ATCC. The human bronchial epithelial cell line (BEAS-2B), the human lung carcinoma cell line (A549), and the mouse macrophage cell line (J774A.1) were generous gifts from Prof. David K. Orren (University of Kentucky, Lexington, Ky.), Prof. Markos Leggas (University of Kentucky, Lexington, Ky.), and Prof. David J. Feola (University of Kentucky, Lexington, Ky.), respectively. A549, HEK-293, and BEAS-2B cells were cultured in Dulbecco's Modified Eagle's Medium (DMEM, catalog #VWRL0100, VWR, Chicago, Ill.) supplemented with 10% fetal bovine serum (FBS; from ATCC) and 1% penicillin/streptomycin (from ATCC) at 37° C. with 5% CO2. The J774A.1 cells were cultured in DMEM (catalog #30-2002, ATCC, Manassas, Va.), which was also supplemented with FBS and antibiotics and grown at 37° C. with 5% CO2.
# To examine whether the compounds are safe for human cells, cytotoxicity assays were done against four mammalian cell lines: HEK-293, A549, BEAS-2B, and J774A.1 cells. […] HEK-293 and J774A.1 cells were plated at 1×10^4 cells/mL while A549 and BEAS-2B were plated at 3×10^3 cells/mL. Compounds were tested in concentrations ranging from 0.06 to 15.6 μg/mL with final concentration of DMSO at 0.5% (FIG. 4A-D).
# [21] = strain B = C. albicans ATCC 10231(R), MIC-0, 48 h, listed as split over r8 and r9 (r9 printed beside letter C)
Compound,MIC [1],MIC (in parentheses) [1],MIC [3],MIC (in parentheses) [3],MIC [4],MIC (in parentheses) [4],MIC [5],MIC (in parentheses) [5],MIC [6],MIC (in parentheses) [6],MIC [7],MIC (in parentheses) [7],MIC [8],MIC (in parentheses) [8],MIC [9],MIC (in parentheses) [9],Biofilm prevention SMIC90 [14],Biofilm prevention SMIC90 [15],Pre-formed biofilm SMIC90 [16],Pre-formed biofilm SMIC90 [17],also measured
"C[C@@H]1[C@H](O)[C@@H](C)/C=C/C=C/C=C/C=C/C=C/C=C/C=C/[C@H](O[C@@H]2O[C@H](C)[C@@H](O)[C@H](N)[C@@H]2O)C[C@@H]2O[C@](O)(C[C@@H](O)C[C@@H](O)[C@H](O)CC[C@@H](O)C[C@@H](O)CC(=O)O[C@H]1C)C[C@H](O)[C@H]2C(=O)O [AmB, amphotericin B, reference compound]",0.98 µg/mL,1.1 µM,3.9 µg/mL,4.2 µM,7.8 µg/mL,8.4 µM,3.9 µg/mL,4.2 µM,1.95 µg/mL,2.1 µM,1.95 µg/mL,2.1 µM,0.98 µg/mL,1.1 µM,31.3 µg/mL,33.8 µM,0.98 µg/mL,1.95 µg/mL,31.3 µg/mL,7.8 µg/mL,"MIC [2, 21]: 1.95 µg/mL; MIC (in parentheses) [2, 21]: 2.1 µM; MIC [10]: 1.95 µg/mL; MIC (in parentheses) [10]: 2.1 µM; MIC [11]: 0.98 µg/mL; MIC (in parentheses) [11]: 1.1 µM; MIC [12]: 1.95 µg/mL; MIC (in parentheses) [12]: 2.1 µM; MIC [13]: 1.95 µg/mL; MIC (in parentheses) [13]: 2.1 µM; SMIC90 of pre-formed biofilm relative to MIC with planktonic cells [16]: 32 fold; MIC values (range) ([18]; all filamentous fungi, Aspergillus spp. and Fusarium spp.): 7.8 to 31.3 µg/mL"
"CC(=O)OC[C@H]1O[C@@H]([S-])[C@H](OC(C)=O)[C@@H](OC(C)=O)[C@@H]1OC(C)=O.CCP(CC)CC.[Au+] [Auranofin, auranofin, reference compound]",> 31.3 µg/mL,> 46.1 µM,> 31.3 µg/mL,> 46.1 µM,> 31.3 µg/mL,> 46.1 µM,> 31.3 µg/mL,> 46.1 µM,> 31.3 µg/mL,> 46.1 µM,7.8 µg/mL,11.5 µM,3.9 µg/mL,5.7 µM,> 31.3 µg/mL,> 46.1 µM,7.8 µg/mL,>31.3 µg/mL,7.8 µg/mL,>31.3 µg/mL,"MIC [2, 21]: > 31.3 µg/mL; MIC (in parentheses) [2, 21]: > 46.1 µM; MIC [19]: 3.9 µg/mL; MIC (in parentheses) [19]: 5.7 µM; Pre-formed biofilm SMIC90 ([16]; listed as auranofin): the same SMIC90 as compound 4; MIC ([18]; Candida spp.): > 31.3 µg/mL; antifungal activity ([18]; Candida spp.): no antifungal activity; antifungal activity class ([18]; Candida spp.): poor (MIC ≥15.6 μg/mL (poor antifungal activity)); MIC ([18]; two Aspergillus spp.): 3.9 µg/mL and 7.8 µg/mL; antifungal activity class ([18]; two Aspergillus spp.): good (MIC = 3.9-7.8 μg/mL (good antifungal activity)); IC50 ([20]; A549, BEAS-2B, and HEK-293 cell lines, read-out: IC50 values (range over cell lines)): 500 to 3000 nM; cell survival [20]: no cell survival"
"bis-[1,2-bis[(2R,5R)-2,5-dimethylfphospholano]benzene]gold(1) [Compound 6]",0.49 µg/mL,0.6 µM,0.98 µg/mL,1.2 µM,0.49 µg/mL,0.6 µM,0.49 µg/mL,0.6 µM,1.95 µg/mL,2.3 µM,0.49 µg/mL,0.6 µM,0.49 µg/mL,0.6 µM,7.8 µg/mL,9.2 µM,0.98 µg/mL,3.9 µg/mL,3.9 µg/mL,7.8 µg/mL,MIC [2]: 0.98 (1.2) μg/mL; MIC (in parentheses) [2]: 0.98 (1.2) μM; MIC [19]: 3.9 µg/mL; MIC (in parentheses) [19]: 4.6 µM; MIC [10]: 0.98 µg/mL; MIC (in parentheses) [10]: 1.2 µM; MIC [11]: 0.98 µg/mL; MIC (in parentheses) [11]: 1.2 µM; MIC [12]: 1.95 µg/mL; MIC (in parentheses) [12]: 2.3 µM; MIC [13]: 1.95 µg/mL; MIC (in parentheses) [13]: 2.3 µM; SMIC90 of pre-formed biofilm relative to MIC with planktonic cells [16]: 4 fold; overall assessment as antifungals ([18]; panel of twenty fungal strains (Table 1)): great promise; cell survival [20]: no cell survival
